Experimental data reported in ChEMBL document CHEMBL5584335, “Investigating Active Site Binding of Ligands to High and Low Activity Carbonic Anhydrase Enzymes Using Native Mass Spectrometry” (J Med Chem, 2024).
Calls of active or inactive are those of the source. The calls are words filed in the database; no cut-off is given here.

Legend:
[1] = molecular target: T1, Carbonic anhydrase 3 (Homo sapiens, UniProt P07451); assay: Binding affinity to human recombinant CA III active site expressed in Escherichia coli BL21 (DE3) pLysS cells at 18.18 uM at protein:compound ratio of 1:2 incubated for 30 mins by native mass spectrometry analysis
T1 sequence (P07451 whole entry): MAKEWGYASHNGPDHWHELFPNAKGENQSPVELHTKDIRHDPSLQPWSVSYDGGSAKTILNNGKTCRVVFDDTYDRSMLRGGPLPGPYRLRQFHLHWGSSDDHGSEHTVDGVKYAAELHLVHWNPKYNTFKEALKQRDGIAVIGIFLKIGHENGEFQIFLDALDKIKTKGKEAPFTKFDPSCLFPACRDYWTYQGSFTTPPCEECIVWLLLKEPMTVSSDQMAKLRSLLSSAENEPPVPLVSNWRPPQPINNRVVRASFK

[2] = molecular target: T1, Carbonic anhydrase 3; assay: Binding affinity to human recombinant CA III assessed as inhibition constant

| SMILES | Activity [1] | Ki [2] [µM] |
| --- | --- | --- |
| Cc1ccccc1N1C(=O)c2cc(S(N)(=O)=O)c(Cl)cc2NC1C (stereo unspecified) [METOLAZONE] | inactive | 610 |
| NS(=O)(=O)c1cc(C(=O)O)c(NCc2ccco2)cc1Cl | inactive |  |
| CC1Cc2ccccc2N1NC(=O)c1ccc(Cl)c(S(N)(=O)=O)c1 (stereo unspecified) | inactive |  |
| NS(=O)(=O)c1cc2c(cc1Cl)NCNS2(=O)=O [HYDROCHLOROTHIAZIDE] | inactive | 790 |
| Cc1ccc(-c2cc(C(F)(F)F)nn2-c2ccc(S(N)(=O)=O)cc2)cc1 | inactive |  |
| NS(=O)(=O)c1ccc(N2CCCCS2(=O)=O)cc1 | inactive |  |
| Cc1onc(-c2ccccc2)c1-c1ccc(S(N)(=O)=O)cc1 | inactive |  |
| CCCCNc1cc(C(=O)O)cc(S(N)(=O)=O)c1Oc1ccccc1 [BUMETANIDE] | inactive | 3400 |
